Test results from paper PMC12484987 (Scientific Reports, 2025).

Molecular target: HIV-1 RT (Human immunodeficiency virus type 1 group M subtype B, UniProt P04585)
Assay: HIV-1 RT inhibition assay
Type: biochemical
Settings: not given

Row | SMILES | IC50 [µM]
1 | Cc1cc(/C=C/C#N)cc(C)c1Nc1ccnc(Nc2ccc(C#N)cc2)n1 [RPV, rilpivirine, reference compound] | 0.063

Same assay, conditions: read-out: Inhibitory activity (%) against HIV-1 RT

Row | SMILES | inhibition at 1 µM [%]
2 | Cc1cc(/C=C/C#N)cc(C)c1Nc1ccnc(Nc2ccc(C#N)cc2)n1 [RPV, rilpivirine, reference compound] | 97.1

Test system: HepG2 (Hepatocarcinoma)
Assay: not given
Settings: HepG2, at maximum tested concentration of 50 µg/mL

Row | SMILES | Percentage cytotoxicity [%]
3 | Cc1cc(C#N)cc(C)c1Oc1cc(Oc2c(C)cc(C#N)cc2C)c2ccncc2n1 [Compound 14b, 2,4-di-(2ˊ,6ˊ-dimethyl-4ˊ-cyanophenoxy)−1,7-naphthyridine] | 34

Test system: MOLT-3 (Acute lymphoblastic leukemia)
Assay: not given
Settings: MOLT-3, at maximum tested concentration of 50 µg/mL

Row | SMILES | Percentage cytotoxicity [%]
4 | Cc1cc(C#N)cc(C)c1Oc1cc(Oc2c(C)cc(C#N)cc2C)c2ccncc2n1 [Compound 14b, 2,4-di-(2ˊ,6ˊ-dimethyl-4ˊ-cyanophenoxy)−1,7-naphthyridine] | 16

Test system: HuCCA-1 (Cholangiocarcinoma)
Assay: not given
Settings: HuCCA-1, at maximum tested concentration of 50 µg/mL

Row | SMILES | Percentage cytotoxicity [%]
5 | Cc1cc(C#N)cc(C)c1Oc1cc(Oc2c(C)cc(C#N)cc2C)c2ccncc2n1 [Compound 14b, 2,4-di-(2ˊ,6ˊ-dimethyl-4ˊ-cyanophenoxy)−1,7-naphthyridine] | 0

Test system: A549 (Lung carcinoma)
Assay: not given
Settings: A549, at maximum tested concentration of 50 µg/mL

Row | SMILES | Percentage cytotoxicity [%]
6 | Cc1cc(C#N)cc(C)c1Oc1cc(Oc2c(C)cc(C#N)cc2C)c2ccncc2n1 [Compound 14b, 2,4-di-(2ˊ,6ˊ-dimethyl-4ˊ-cyanophenoxy)−1,7-naphthyridine] | 8
7 | Cc1cc(/C=C/C#N)cc(C)c1Nc1ccnc(Nc2ccc(C#N)cc2)n1 [RPV, rilpivirine, reference compound] | 42

Test system: MRC-5 (normal embryonic lung cell)
Assay: not given
Settings: MRC-5, at maximum tested concentration of 50 µg/mL

Row | SMILES | Percentage cytotoxicity [%]
8 | Cc1cc(C#N)cc(C)c1Oc1cc(Oc2c(C)cc(C#N)cc2C)c2ccncc2n1 [Compound 14b, 2,4-di-(2ˊ,6ˊ-dimethyl-4ˊ-cyanophenoxy)−1,7-naphthyridine] | 0
9 | Cc1cc(/C=C/C#N)cc(C)c1Nc1ccnc(Nc2ccc(C#N)cc2)n1 [RPV, rilpivirine, reference compound] | 14

Same assay, conditions: MRC-5, up to 50 µg/mL

Row | SMILES | toxicity toward normal embryonic lung cells (MRC-5), in words
10 | Cc1cc(C#N)cc(C)c1Oc1cc(Oc2c(C)cc(C#N)cc2C)c2ccncc2n1 [Compound 14b, 2,4-di-(2ˊ,6ˊ-dimethyl-4ˊ-cyanophenoxy)−1,7-naphthyridine] | non-toxic

Test system: MDA-MB-231 (Hormone-independent breast cancer)
Assay: not given
Settings: MDA-MB-231, at maximum tested concentration of 50 µg/mL

Row | SMILES | Percentage cytotoxicity [%]
11 | Cc1cc(C#N)cc(C)c1Oc1cc(Oc2c(C)cc(C#N)cc2C)c2ccncc2n1 [Compound 14b, 2,4-di-(2ˊ,6ˊ-dimethyl-4ˊ-cyanophenoxy)−1,7-naphthyridine] | 22

Test system: S102 (Thai liver cancer)
Assay: not given
Settings: S102, at maximum tested concentration of 50 µg/mL

Row | SMILES | Percentage cytotoxicity [%]
12 | Cc1cc(C#N)cc(C)c1Oc1cc(Oc2c(C)cc(C#N)cc2C)c2ccncc2n1 [Compound 14b, 2,4-di-(2ˊ,6ˊ-dimethyl-4ˊ-cyanophenoxy)−1,7-naphthyridine] | 6

Test system: HeLa (Cervical carcinoma)
Assay: not given
Settings: HeLa, at maximum tested concentration of 50 µg/mL

Row | SMILES | Percentage cytotoxicity [%]
13 | Cc1cc(C#N)cc(C)c1Oc1cc(Oc2c(C)cc(C#N)cc2C)c2ccncc2n1 [Compound 14b, 2,4-di-(2ˊ,6ˊ-dimethyl-4ˊ-cyanophenoxy)−1,7-naphthyridine] | 24

Test system: T47-D (Hormone-dependent breast cancer)
Assay: not given
Settings: T47-D, at maximum tested concentration of 50 µg/mL

Row | SMILES | Percentage cytotoxicity [%]
14 | Cc1cc(C#N)cc(C)c1Oc1cc(Oc2c(C)cc(C#N)cc2C)c2ccncc2n1 [Compound 14b, 2,4-di-(2ˊ,6ˊ-dimethyl-4ˊ-cyanophenoxy)−1,7-naphthyridine] | 0

Test system: H69AR (Lung cancer, multidrug resistance)
Assay: not given
Settings: H69AR, at maximum tested concentration of 50 µg/mL

Row | SMILES | Percentage cytotoxicity [%]
15 | Cc1cc(C#N)cc(C)c1Oc1cc(Oc2c(C)cc(C#N)cc2C)c2ccncc2n1 [Compound 14b, 2,4-di-(2ˊ,6ˊ-dimethyl-4ˊ-cyanophenoxy)−1,7-naphthyridine] | 0

Test system: HL-60 (promyeloblast)
Assay: not given
Settings: HL-60, at maximum tested concentration of 50 µg/mL

Row | SMILES | Percentage cytotoxicity [%]
16 | Cc1cc(C#N)cc(C)c1Oc1cc(Oc2c(C)cc(C#N)cc2C)c2ccncc2n1 [Compound 14b, 2,4-di-(2ˊ,6ˊ-dimethyl-4ˊ-cyanophenoxy)−1,7-naphthyridine] | 24

Test system: HepG2 (Hepatocarcinoma)
Assay: cells
Settings: Homo sapiens, HepG2, 48 h, read-out: IC50 cytotoxic activity

Row | SMILES | IC50 [µM]
17 | Cc1cc(C#N)cc(C)c1Oc1cc(Oc2c(C)cc(C#N)cc2C)c2ccncc2n1 [Compound 14b, 2,4-di-(2ˊ,6ˊ-dimethyl-4ˊ-cyanophenoxy)−1,7-naphthyridine] | > 119

Test system: MOLT-3 (Acute lymphoblastic leukemia)
Assay: cells
Settings: Homo sapiens, MOLT-3, 48 h, read-out: IC50 cytotoxic activity

Row | SMILES | IC50 [µM]
18 | Cc1cc(C#N)cc(C)c1Oc1cc(Oc2c(C)cc(C#N)cc2C)c2ccncc2n1 [Compound 14b, 2,4-di-(2ˊ,6ˊ-dimethyl-4ˊ-cyanophenoxy)−1,7-naphthyridine] | > 119
19 | Cc1cc(/C=C/C#N)cc(C)c1Nc1ccnc(Nc2ccc(C#N)cc2)n1 [RPV, rilpivirine, reference compound] | 4.3 ± 0.5

Test system: HuCCA-1 (Cholangiocarcinoma)
Assay: cells
Settings: Homo sapiens, HuCC-A1, 48 h, read-out: IC50 cytotoxic activity

Row | SMILES | IC50 [µM]
20 | Cc1cc(C#N)cc(C)c1Oc1cc(Oc2c(C)cc(C#N)cc2C)c2ccncc2n1 [Compound 14b, 2,4-di-(2ˊ,6ˊ-dimethyl-4ˊ-cyanophenoxy)−1,7-naphthyridine] | > 119

Test system: A549 (Lung carcinoma)
Assay: cells
Settings: Homo sapiens, A549, 48 h, read-out: IC50 cytotoxic activity

Row | SMILES | IC50 [µM]
21 | Cc1cc(C#N)cc(C)c1Oc1cc(Oc2c(C)cc(C#N)cc2C)c2ccncc2n1 [Compound 14b, 2,4-di-(2ˊ,6ˊ-dimethyl-4ˊ-cyanophenoxy)−1,7-naphthyridine] | > 119
22 | Cc1cc(/C=C/C#N)cc(C)c1Nc1ccnc(Nc2ccc(C#N)cc2)n1 [RPV, rilpivirine, reference compound] | > 137

Test system: MDA-MB-231 (Hormone-independent breast cancer)
Assay: cells
Settings: Homo sapiens, MDA-MB-231, 48 h, read-out: IC50 cytotoxic activity

Row | SMILES | IC50 [µM]
23 | Cc1cc(C#N)cc(C)c1Oc1cc(Oc2c(C)cc(C#N)cc2C)c2ccncc2n1 [Compound 14b, 2,4-di-(2ˊ,6ˊ-dimethyl-4ˊ-cyanophenoxy)−1,7-naphthyridine] | > 119

Test system: S102 (Thai liver cancer)
Assay: cells
Settings: Homo sapiens, 48 h, read-out: IC50 cytotoxic activity

Row | SMILES | IC50 [µM]
24 | Cc1cc(C#N)cc(C)c1Oc1cc(Oc2c(C)cc(C#N)cc2C)c2ccncc2n1 [Compound 14b, 2,4-di-(2ˊ,6ˊ-dimethyl-4ˊ-cyanophenoxy)−1,7-naphthyridine] | > 119

Test system: HeLa (Cervical carcinoma)
Assay: cells
Settings: Homo sapiens, 48 h, read-out: IC50 cytotoxic activity

Row | SMILES | IC50 [µM]
25 | Cc1cc(C#N)cc(C)c1Oc1cc(Oc2c(C)cc(C#N)cc2C)c2ccncc2n1 [Compound 14b, 2,4-di-(2ˊ,6ˊ-dimethyl-4ˊ-cyanophenoxy)−1,7-naphthyridine] | > 119

Test system: T47-D (Hormone-dependent breast cancer)
Assay: cells
Settings: Homo sapiens, T47D, 48 h, read-out: IC50 cytotoxic activity

Row | SMILES | IC50 [µM]
26 | Cc1cc(C#N)cc(C)c1Oc1cc(Oc2c(C)cc(C#N)cc2C)c2ccncc2n1 [Compound 14b, 2,4-di-(2ˊ,6ˊ-dimethyl-4ˊ-cyanophenoxy)−1,7-naphthyridine] | > 119

Test system: H69AR (Lung cancer, multidrug resistance)
Assay: cells
Settings: Homo sapiens, 48 h, read-out: IC50 cytotoxic activity

Row | SMILES | IC50 [µM]
27 | Cc1cc(C#N)cc(C)c1Oc1cc(Oc2c(C)cc(C#N)cc2C)c2ccncc2n1 [Compound 14b, 2,4-di-(2ˊ,6ˊ-dimethyl-4ˊ-cyanophenoxy)−1,7-naphthyridine] | > 119

Test system: HL-60 (promyeloblast)
Assay: cells
Settings: Homo sapiens, HL-60, 48 h, read-out: IC50 cytotoxic activity

Row | SMILES | IC50 [µM]
28 | Cc1cc(C#N)cc(C)c1Oc1cc(Oc2c(C)cc(C#N)cc2C)c2ccncc2n1 [Compound 14b, 2,4-di-(2ˊ,6ˊ-dimethyl-4ˊ-cyanophenoxy)−1,7-naphthyridine] | > 119

Test system: not listed separately
Assay: in vitro
Settings: human, MRC-5 cells (normal embryonic lung cells)

Row | SMILES | IC50 at 48 h [µM]
29 | Cc1cc(C#N)cc(C)c1Oc1cc(Oc2c(C)cc(C#N)cc2C)c2ccncc2n1 [Compound 14b, 2,4-di-(2ˊ,6ˊ-dimethyl-4ˊ-cyanophenoxy)−1,7-naphthyridine] | > 119
30 | Cc1cc(/C=C/C#N)cc(C)c1Nc1ccnc(Nc2ccc(C#N)cc2)n1 [RPV, rilpivirine, reference compound] | > 137
